Test system: AChE-Aβ complex (A549 cell-conditioned media)
Experiment: ELISA, AChE found in a complex with Aβ in A549 cell-conditioned media
Format: binding, human
Description: Human NSCLC cell lines, A549 (ATCC CCL‐185) and H1299 (ATCC CRL‐5803), were purchased from the American Type Culture Collection (ATCC, Manassas, VA, USA). Cells were seeded as we reported earlier in 5 mL HyClone Dulbecco's modified Eagle's medium/nutrient mixture F‐12 (DMEM/F12) (GE Healthcare Life Sciences, Pittsburgh, PA, USA), supplemented with 10% Fetalgro bovine growth serum (FBS; RMBIO, Missoula, MT, USA), 50 U·mL^−1 penicillin, and […] streptomycin (Invitrogen, Life Technologies, Carlsbad, CA, USA) in 25‐cm^2 tissue culture flasks, and allowed to grow overnight in an incubator at 37 °C, 95% humidity, and 5% CO2. The cells were counted after trypan blue staining, with a hemocytometer.
ELISAs were carried out as we previously reported. Nunc MaxiSorp 96‐well flat bottom plate (Thermo Fisher) wells were coated with samples as indicated. The plates were incubated overnight at 4 °C on a shaker to allow binding of the samples to the plate wells. After the incubation, the wells were washed 4× with TBST, filled with 400 µL blocking buffer (110 mM KCl, 5 mM NaHCO3, 5 mM MgCl2, 1 mM EGTA, 0.1 mM CaCl2, 20 mM HEPES, 1% BSA, pH 7.4), and incubated with shaking overnight at 4 °C. […] TBST was then used to wash the wells 4× before proceeding in one of two ways: (a) biotinylated samples were analyzed by adding 100 µL streptavidin–HRP conjugate in TBST (1 : 2500 dilution) to the samples followed by incubation for 3 h at RT on a shaker, or (b) samples without biotin were analyzed by adding 100 µL TBST containing the primary antibody as per the manufacturer's recommendation, incubating for 3 h at RT on a shaker, followed by washing the wells 4× with TBST. […] The reaction was stopped with 100 µL 2 M H2SO4 after incubating at RT for 0.5–15 min, resulting in a yellow color change, measured by absorbance at 450 nm. […] Before analysis, the OD from the data was corrected for nonspecific binding by subtracting the mean background absorbance for the negative controls. […] Statistical analysis was determined by the […] […] Data were expressed as the mean ± SD. […]

## Nc1ncnc2c1ncn2[C@@H]1O[C@H](COP(=O)(O)OP(=O)(O)OP(=O)(O)O)[C@@H](O)[C@H]1O [ATP, Adenosine triphosphate]
100 μM ATP, 6E10 or 82E1 on wells, three experiments in triplicate, Fig. 5A
  decrease in levels of AChE found in a complex with Aβ: ~ 2.3 fold
1 mM ATP, 6E10 or 82E1 on wells, Fig. 5A
  levels of AChE found in a complex with Aβ: decreased to almost blank levels
anti-AChE on wells, Aβ detected by 6E10 or 82E1, Fig. 5B
  Aβ detected on anti-AChE wells upon ATP addition: comparable decrease in the levels of Aβ
